# Source: US11518805B2, “Binding inhibitor between TCTP dimer type IgE-dependent histamine releasing factor and receptor thereof, and use thereof” (EWHA UNIVERSITY—INDUSTRY COLLABORATION FOUNDATION, priority 2014, dated 2022)
# Experiments:
# [1] = test system: CIA (collagen-induced arthritis) mouse model; assay: Preventive effect of dTBP2 in CIA (collagen-induced arthritis) mouse model; assay type: in vivo, male DBA1/j mice; conditions: for joint thickness: preventive
# HRF [2] = assay: Phage clone ELISA for binding to immobilized HRF
# Method: Particularly, HRF was dissolved in a coating buffer (0.1 M NaHCO 3, pH 8.6) at the concentration of 20 μg/ml, which was loaded in a polystyrene microtiter plate (50 ? /well), followed by coating at 4° C. for overnight and blocking non-specific binding with BSA. The plate was washed with 0.1% Tween/TBS (TBST) 6 times. […] The plate stood at room temperature for 1 hour. TBST was added thereto, and the plate stood for 5 minutes, followed by washing. The washing was performed once after one round of panning, 5 times after 2 and 3 rounds of panning, and 10 times after 4 rounds of panning. 50 ? of glycine/HCl buffer (pH 2.2) was added thereto, which stood for 5 minutes. Then, phages were eluted, and then neutralization was induced with 8 ? of 1 M Tris-HCl (pH 9.1). The eluted phage solution was added to 20 ? of ER2537 culture medium (OD600=0.5˜1), followed by culture in a 37° C. shaking incubator (rpm=200) for 2 hours. 100 ? of SB medium was added thereto, followed by culture for overnight with shaking (250 rpm). The culture solution was centrifuged at 10,000 rpm (4° C.) for 15 minutes. 100 ? of the obtained supernatant was added with 30 ? of 5×PEG/NaCl (20% PEG(w/v), 15% NaCl (w/v)), followed by dissolving for 5 minutes. The mixture was then left in ice for 30 minutes. The mixture was centrifuged at 10,000 rpm (4° C.) for 20 minutes and the supernatant was discarded. The obtained pellet was suspended in 1 ? of 3% BSA/TBS. After performing centrifugation at 14,000 rpm for 5 minutes, the supernatant was obtained and used for panning. Affinity purification and phage replication were repeated 4 times, followed by eluting phages. Each phage clone was obtained from the proper plate of the eluted phage, followed by ELISA. Those phage clones showing a specific affinity to HRF were separated, followed by sequencing to confirm the peptide sequence. Those phage display peptides showing dominant binding to HRF were selected and listed below:
# That is, each phage plaque was added to 1 ? of the ER2537 culture medium (OD600=0.5˜1) cultured in SB medium, followed by culture in a 37° C. incubator (rpm=250) for 5 hours. 100 ? of each culture solution was added to 900 ? of SB medium, followed by culture for overnight. […]
# Each phage solution separated above was diluted in an equal volume of 6% BSA/PBS, and 50 ? of the diluted solution was added to each well of the plastic well plate coated with HRF or BSA (control), which stood for 2 hours. […] After adding peroxidase substrate solution thereto (100 ? /well), OD405 was measured with an ELISA reader.
# HRF was diluted serially by ⅕ fold each from the concentration of 20 μg/ ? […] The phage 2 solution diluted serially by ⅕ fold each (½, 1/10, 1/50, 1/250, and 1/1250 of the stock solution) was added thereto, followed by ELISA and OD405 was measured.
# CIA mouse model = assay: Treatment effect of dTBP2 in CIA mouse model; assay type: in vivo, DBA1/j mice
# [3] = test system: atopic dermatitis mouse model; assay: Effect of dTBP2 in atopic dermatitis mouse model (Biostir AD); assay type: in vivo, female NC/Nga mice
# Method: Particularly, 5 week old specific pathogen free female NC/Nga mice were purchased from Orientbio Inc. (Seoul, Korea), which were adapted for 1 week. After depilating with a hair removal agent, Biostir® AD ointment (Biostir, Japan) was used to induce atopic dermatitis on the dorsal skin. That is, hair was removed from the back of the mouse, on which 150 μl of 4% SDS dissolved in PBS was applied. After 2-3 hours of natural dry, 100 mg of Biostir® AD cream was evenly applied on the back skin and the ear skin of the mouse. The cream was applied twice a week, 6 times total for 3 weeks. It was confirmed that the skin layer of the mouse became thick and keratin was formed on the back skin.
# To investigate the effect of dTBP2 on atopic dermatitis in the atopic dermatitis-induced mouse, the positive control was administered with PBS, the comparative experimental group was administered with protopic ointment (Astellas Pharma Manufacturing Inc., USA), and the experimental group was treated with dTPB2. On day 0, PBS (subcutaneous injection, 25 mg/kg), protopic ointment (skin application, 100 mg/mouse) and dTBP2 (subcutaneous injection, 25 mg/kg) were respectively applied. On day 1, 100 mg of Biostir® AD cream was applied thereto. On day 2 and day 3, PBS, protopic ointment, and dTBP2 were treated thereto by the same manner as performed on day 0. On day 4, 100 mg of Biostir® AD cream was applied thereto. On day 5, PBS, protopic ointment, and dTBP2 were treated thereto by the same manner as performed on day 0.
# Atopic symptoms were observed and presented as points according to the atopic index such as erythema, drying, excoriation, edema, and erosion, based on which a graph was made (FIG. 32b, 0: no symptoms, 1: weak symptoms, 2: median symptoms, 3: severe symptoms). It was confirmed on the graph that atopy was minor in the group treated with protopic ointment and dTBP2, compared with the control.
# Once atopic allergy is induced, the stratum corneum and skin layer become thick and the infiltration of inflammatory cells is increased. For the histological evaluation, hematoxylin/eosin staining and toluidine blue staining were performed. The thickness of the skin and the infiltration of immune related inflammatory cells were observed under microscope. As a result, the atopic symptoms including the thick stratum corneum were improved in the groups treated with protopic ointment and dTBP2, compared with the control group treated with PBS alone (FIGS. 34a and 34b).
# Lymph node assay examining the effect of an antigen or a drug by observing the changes of lymph node weight was performed to investigate inflammatory reaction induced by skin sensitizing materials.
# HRF [4] = assay: HRF binding affinity of heptamer peptides by ELISA (alanine scan of p2); conditions: p2 and its substituted heptamers m1-m7
# Excerpt: In order to confirm the residues involved in the HRF binding affinity of the heptamer peptide of the present invention, the amino acid sequence of p2 was substituted with alanine (A), and only m5 was substituted with lysine (K). As a result, the following sequences were established: […]
# [5] = dTBP2 25 mg/kg s.c., protopic ointment 100 mg/mouse, vs PBS
substance,measurement,setting,value
"WYVYPSM (IgE-dependent histamine-releasing factor binding peptide2) [dTBP2, ID; NO: 24]",joint thickness,[1]; 5 mg of dTBP2,continuously increased until day 41 and rapidly increased from day 41 to day 46
same,development of rheumatoid arthritis,"[1]; 25 mg of dTBP2, three times a week, vs vehicle alone or 5 mg",inhibited more significantly
same,joint thickness,[1]; 25 mg of dTBP2,almost as same as that of the normal until day 46
same,inhibition of incidence rate,"[1]; day 31, 25 mg of dTBP2, vs vehicle alone or 5 mg",at least 50%
same,inhibition of incidence rate,"[1]; day 46, 25 mg of dTBP2, vs vehicle alone or 5 mg",at least 70%
same,"binding force to serially diluted HRF (ELISA, OD405)","HRF [2]; HRF diluted until 0.4, 0.08, 0.016, and 0.032 μg/ml, phage solution serially diluted",maintained its binding force to HRF
same,"binding of phage clone to HRF (ELISA, OD405)",HRF [2]; wells coated with HRF or BSA (control),specifically bind to HRF
same,joint thickness,CIA mouse model; 5 mg of dTBP2 from day 41,continuously increased
same,joint thickness,CIA mouse model; 25 mg of dTBP2 from day 41,reduced
same,arthritis clinical score,"CIA mouse model; 25 mg of dTBP2 from day 41, vs vehicle alone or 5 mg",getting lower
same,IL-4 mRNA level,[3]; [5],significantly decreased
same,IL-13 mRNA level,[3]; [5],significantly decreased
same,"atopic symptoms including thick stratum corneum (H&E, skin thickness)",[3]; [5],improved
same,histamine level,[3]; [5],lower
same,level of Th17A,[3]; [5],lowered
same,lymph node weight and size (lymph node assay),[3]; [5],smaller in both weight and size than that of the PBS treated group
same,infiltration of mast cells (toluidine blue),"[3]; dTBP2 25 mg/kg s.c., protopic ointment 100 mg/mouse, vs positive control",significantly reduced
same,"atopic symptoms as points (atopic index: erythema, drying, excoriation, edema, erosion)","[3]; dTBP2 subcutaneous 25 mg/kg, protopic ointment 100 mg/mouse, vs control",minor
same,"degree of atopy, visually confirmed","[3]; dTBP2 subcutaneous 25 mg/kg, protopic ointment skin application 100 mg/mouse, vs control",lesser degree of atopy than the control group
same,HRF binding affinity (rank order),HRF [4],"p2, m6>m7>m3>m2>fm5>M1>m4"
